Source: patent US10968203B2, “Pyrimidinyl-pyridyloxy-naphthyl compounds and methods of treating IRE1-related diseases and disorders” (Genentech, Inc., priority 2017, dated 2021)
Counter-ions that a name gives are not always drawn.

Tested on: XBP1s-luc 293 LUC
Assay: cellular PD assay, XBP1s-LUC reporter (Example 903)
Format: cell-based
Conditions: Table 1; read-out: XBP1s-luc 293 LUC (IC50)
Procedure: Inhibition of IRE1α RNase activity was determined in an enzyme assay that measured cleavage of the XBP1 stem loop by autophosphorylated IRE1α. This assay format was chosen to ensure that inhibitors of either the IRE1α kinase or the RNase domains would be identified. Binding to the ATP pocket and inhibition of IRE1α kinase activity are not necessarily required to inhibit the RNase activity. Compounds were also profiled in cellular assays by direct measurement of XBP s (B-DNA assay) or by quantification of the luciferase signal in HT1080 XBP1-Luc, which carries a luciferase fusion that is only in frame and expressed from the spliced XBP1 transcript.
Biological activity of Formula I or I′ compounds was measured by an IRE1 biochemical binding assay (Example 901), a biochemical RNase assay (Example 902), a cellular PD assay, XBP1s-LUC reporter (Example 903), and an IRE1α-based inhibition of multiple myeloma (MM) cell proliferation assay.
All of the exemplary Formula I or I′ compounds in Tables 1 and 2 were made and characterized by LCMS [M+H]^+ (liquid chromatography mass spectroscopy) with detection of parent ion. All of the exemplary Formula I compounds in Tables 1 and 2 were prepared according to the procedures of the Schemes, General Procedures, and Examples. All of the exemplary Formula I or I′ compounds in Tables 1 and 2 were tested for binding to IRE1 (inositol requiring enzyme 1 alpha) and biological activity according to the assays and protocols of Example 901-903. Exemplary Formula I or I′ compounds in Tables 1 and 2 have the following structures, corresponding IUPAC names (ChemBioDraw, Version 12.0.2, CambridgeSoft Corp., Cambridge Mass.), and biological activity. Where more than one name is associated with a Formula I or I′ compound or intermediate in Tables 1 and 2 and the Experimental Procedures, the chemical structure shall define the compound. Assignment of configuration at chiral centers in separated stereoisomers may be tentative, and depicted in Tables 1 and 2 structures for illustrative purposes, before stereochemistry is definitively established, such as from x-ray crystallographic data. In some cases, stereoisomers are separated and tested for biological activity before the stereochemistry of the separated stereoisomers is determined; and stereochemistry in some instances was inferred based on structure-activity relationship (SAR) knowledge from previous compounds. In some cases, the compounds are tested as racemic or diastereomeric mixtures. Where more than one potency value is entered on a row, separated stereoisomers represented by the structure and name on that row were tested. Exemplary compounds of Formula I or I′ in Table 3 can be prepared using methods known in the art or according to procedures similar to those described in the Schemes, General Procedures, and Examples 101-500. Biological activities of compounds in Table 3 can be tested in biological assays, for example, those in Examples 901, 902 and 903 described herein.

SMILES | IC50 [nM]
Cc1ccc2c(NC(=O)c3cn(C)cn3)cccc2c1Oc1ncccc1-c1ccnc(N[C@H]2CCCNC2)n1 [Example 176, (S)-1-Methyl-N-(6-methyl-5-((3-(2-(piperidin-3-ylamino)pyrimidin-4-yl)pyridin-2-yl)oxy)naphthalen-1-yl)-1H-imidazole-4-carboxamide] | 368
Cc1ccc2c(NS(=O)(=O)Cc3c(F)cccc3F)c(F)ccc2c1Oc1ncccc1-c1ccnc(N[C@H]2CCCNC2)n1 [Example 213, (S)-1-(2,6-Difluorophenyl)-N-(2-fluoro-6-methyl-5-((3-(2-(piperidin-3-ylamino)pyrimidin-4-yl)pyridin-2-yl)oxy)naphthalen-1-yl)methanesulfonamide] | 4.57
CC[C@H]1CCN(c2cccc3c(Oc4ncccc4-c4ccnc(N[C@H]5CCCNC5)n4)c(C)ccc23)C1=O (single isomer, unassigned) [Example 355] | 365
Cc1ccc2c(NCc3cnn(C)c3)cccc2c1Oc1ncccc1-c1ccnc(N[C@H]2CCCNC2)n1 [Example 265, (S)-4-(2-((2-Methyl-5-(((1-methyl-1H-pyrazol-4-yl)methyl)amino)naphthalen-1-yl)oxy)pyridin-3-yl)-N-(piperidin-3-yl)pyrimidin-2-amine] | 393
Cc1ccc2c(NS(=O)(=O)[C@@H](C)c3ccccc3)cccc2c1Oc1ncccc1-c1ccnc(N[C@H]2CCCNC2)n1 (single isomer, unassigned) [Example 214] | 76
Cc1ccc2c(NS(=O)(=O)C3CCCCC3)c(F)ccc2c1Oc1ncccc1-c1ccnc(N[C@@H]2CNC[C@H](C)C2)n1 [Example 317, N-(2-Fluoro-6-methyl-5-((3-(2-(((3S,5R)-5-methylpiperidin-3-yl)amino)pyrimidin-4-yl)pyridin-2-yl)oxy)naphthalen-1-yl)cyclohexanesulfonamide] | 17.6
Cc1ccc2c(NS(=O)(=O)CCC(F)(F)F)cccc2c1Oc1ncccc1-c1ccnc(N[C@H]2CCCNC2)n1 [Example 123, (S)-3,3,3-Trifluoro-N-(6-methyl-5-((3-(2-(piperidin-3-ylamino)pyrimidin-4-yl)pyridin-2-yl)oxy)naphthalen-1-yl)propane-1-sulfonamide hydrochloride] | 84
Cc1ccc2c(Nc3cc(C)n(C)n3)cccc2c1Oc1ncccc1-c1ccnc(N[C@H]2CCCNC2)n1 [Example 258, (S)-4-(2-((5-((1,5-Dimethyl-1H-pyrazol-3-yl)amino)-2-methylnaphthalen-1-yl)oxy)pyridin-3-yl)-N-(piperidin-3-yl)pyrimidin-2-amine] | 419
CCCS(=O)(=O)Nc1cccc2c(Oc3ncccc3-c3ccnc(N[C@@H]4CNCC[C@H]4C)n3)c(C)ccc12 (single isomer, unassigned) [Example 169] | 121
Cc1ccc2c(NC(=O)[C@H]3CCC(F)(F)C3)cccc2c1Oc1ncccc1-c1ccnc(N[C@H]2CCCNC2)n1 (single isomer, unassigned) [Example 270] | 189
Cc1ccc2c(NC(=O)C3CCC3)cccc2c1Oc1ncccc1-c1ccnc(N[C@H]2CCCNC2)n1 [Example 131, (S)—N-(6-Methyl-5-((3-(2-(piperidin-3-ylamino)pyrimidin-4-yl)pyridin-2-yl)oxy)naphthalen-1-yl)cyclobutanecarboxamide] | 153
Cc1ccc2c(NC(=O)[C@H]3CC34CCC4)c(F)ccc2c1Oc1ncccc1-c1ccnc(N[C@H]2CCCNC2)n1 (single isomer, unassigned) [Example 386] | 280
Cc1ccc2c(NC[C@H](O)CF)cccc2c1Oc1ncccc1-c1ccnc(N[C@H]2CCCNC2)n1 (single isomer, unassigned) [Example 333] | 44.6
Cc1ccc2c(NC(=O)N3CCCCC3)cccc2c1Oc1ncccc1-c1ccnc(N[C@H]2CCCNC2)n1 [Example 116, (S)—N-(6-Methyl-5-((3-(2-(piperidin-3-ylamino)pyrimidin-4-yl)pyridin-2-yl)oxy)naphthalen-1-yl)piperidine-1-carboxamide hydrochloride] | 430
Cc1ccc2c(N3CCCCCC3=O)cccc2c1Oc1ncccc1-c1ccnc(N[C@H]2CCCNC2)n1 [Example 249, (S)-1-(6-Methyl-5-((3-(2-(piperidin-3-ylamino)pyrimidin-4-yl)pyridin-2-yl)oxy)naphthalen-1-yl)azepan-2-one] | 309
CC[C@H](O)CNc1cccc2c(Oc3ncccc3-c3ccnc(N[C@H]4CCCNC4)n3)c(C)ccc12 [Example 313, (S)-1-((6-Methyl-5-((3-(2-((S)-piperidin-3-ylamino)pyrimidin-4-yl)pyridin-2-yl)oxy)naphthalen-1-yl)amino)butan-2-ol] | 148
Cc1ccc2c(NC(=O)C3CC3C(F)(F)F)cccc2c1Oc1ncccc1-c1ccnc(N[C@H]2CCCNC2)n1 (single isomer, unassigned) [Example 227] | 493

Same assay, conditions: Table 2; read-out: XBP1s-luc 293 LUC (IC50)

SMILES | IC50 [nM]
CCCS(=O)(=O)Nc1cccc2c(Oc3ncc(OC)cc3-c3ccnc(N[C@H]4CCCNC4)n3)c(C)ccc12 [Example 424, (S)—N-(5-((5-Methoxy-3-(2-(piperidin-3-ylamino)pyrimidin-4-yl)pyridin-2-yl)oxy)-6-methylnaphthalen-1-yl)propane-1-sulfonamide hydrochloride] | 392
Cc1ccc2c(NS(=O)(=O)C[C@H]3CCC3(F)F)c(F)ccc2c1Oc1ncccc1-c1ccnc(N[C@H]2CCCNC2)n1 (single isomer, unassigned) [Example 471, hydrochloride] | 17
Cc1ccc2c(NS(=O)(=O)Cc3ccccn3)c(F)ccc2c1Oc1ncccc1-c1ccnc(N[C@H]2CCCNC2)n1 [Example 494, (S)—N-(2-Fluoro-6-methyl-5-((3-(2-(piperidin-3-ylamino)pyrimidin-4-yl)pyridin-2-yl)oxy)naphthalen-1-yl)-1-(pyridin-2-yl)methanesulfonamide hydrochloride] | 12.5
Cc1ccc2c(NS(=O)(=O)C[C@H]3CC34CC4)c(F)ccc2c1Oc1ncccc1-c1ccnc(N[C@H]2CCCNC2)n1 (single isomer, unassigned) [Example 474, hydrochloride] | 52
CCC(F)(F)CS(=O)(=O)Nc1c(F)ccc2c(Oc3ncccc3-c3ccnc(N[C@@H]4CNC[C@H](C)C4)n3)c(C)ccc12 [Example 486, 2,2-Difluoro-N-[2-fluoro-6-methyl-5-[[3-[2-[[(3S,5R)-5-methyl-3-piperidyl]amino]pyrimidin-4-yl]-2-pyridyl]oxy]-1-naphthyl]butane-1-sulfonamide hydrochloride] | 3
Cc1ccc2c(NS(=O)(=O)N(C)CC(F)(F)F)c(F)ccc2c1Oc1ncccc1-c1ccnc(N[C@H]2CCCNC2)n1 [Example 427, 4-[2-[[6-Fluoro-2-methyl-5-[[methyl(2,2,2-trifluoroethyl)sulfamoyl]amino]-1-naphthyl]oxy]-3-pyridyl]-2-[[(3S)-3-piperidyl]amino]pyrimidine hydrochloride] | 6
Cc1ccc2c(NCC(C#N)C(C)C)cccc2c1Oc1ncccc1-c1ccnc(N[C@H]2CCCNC2)n1 (single isomer, unassigned) [Example 422] | 83

Same assay, conditions: read-out: XBP1s-luc 293 LUC (IC50)

SMILES | IC50 [nM]
Cc1ccc2c(Oc3ncccc3-c3ccnc(N[C@H]4CCCNC4)n3)c(C)ccc2c1NC[C@H](O)C(F)(F)F [Example 319, (S)-3-((2,6-Dimethyl-5-((3-(2-((S)-piperidin-3-ylamino)pyrimidin-4-yl)pyridin-2-yl)oxy)naphthalen-1-yl)amino)-1,1,1-trifluoropropan-2-ol] | 48.2
